These are literature values, as cited in patent US11993576B2, “N-benzyl-N-arylsulfonamide derivative and preparation and use thereof” (Hangzhou Yirui Pharmaceutical Technology Co., Ltd, priority 2019, dated 2024).

For series [1], the system named is SCID mouse psoriasis xenograft model. To be noted: injection or topical skin application; cited from earlier work.
The subject of series [2] is allergic contact dermatitis. Particulars: applied topically, rat; cited from earlier work.
Series [3] relates to rat model of autoimmune glomerular basal membrane nephritis. To be noted: intraperitoneal injection; cited from earlier work.
The test system of series [4] is Th2 TEM cells with highly expressed Kv1.3. To be noted: ovalbumin-induced asthma, rat; cited from earlier work.
The test system of another series is EAE. To be noted: in vivo; cited from earlier work.

For the compound `O=c1ccc2c(OCCCCOc3ccccc3)c3ccoc3cc2o1` [PAP-1], in series [1], the “reduction of infiltrated CD3+ lymphocytes” value was 85% and the “reduction of thickness of pathological epidermal hyperplasia” value was “approximately 50%”. In series [2], the allergic contact dermatitis result is reported as “can effectively inhibit allergic contact dermatitis”.
In the case of `O=c1ccc2c(OCCCCc3ccccc3)c3ccoc3cc2o1` [Psora-4], the “proteinuria and crescentic glomeruli” value in series [3] is “can significantly decrease proteinuria and crescentic glomeruli”.
As for SHK-186, the “proliferation of Th2 TEM cells and production of cytokines” value in series [4] is “can effectively inhibit proliferation of Th2 TEM cells with highly expressed Kv1.3 and production of cytokines”. In addition, in the series on EAE, the “inductive occurrence of EAE” value is recorded as “can resist inductive occurrence of EAE”; the “production of IFN-γ and IL-17” value is “inhibit production of IFN-γ and IL-17”.
